Assay [1] has as its system ATN-1 (T-Lymphoblastic Leukemia). As to the kind of experiment: Bliss excess, mean over the matrix (fraction); higher = more synergy. Summed up: (§1)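 Bliss excess equals the observed combination effect minus the expected value EA + EB − EA·EB, where EA and EB are the effects of each agent alone. Combination Emax is the second-highest inhibition within the matrix. Inhibition was scaled from CellTiter-Glo 2.0 luminescence, with 0 set by vehicle wells and 1 by blank wells, after 72 hours of two-drug dosing of cells plated in 1536-well plates.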

In assay [2] the test system is SNU-1 (Gastric Carcinoma). The description is as above. Summed up:
as §1

The test system of assay [3] is NCI-H1435 (Non-Small Cell Lung Carcinoma). The assay is described as above. A digest of the protocol: as §1
Assay [4] relates to RVH-421 (Melanoma). Described as above. A digest of the protocol: as §1
Assay [5] has as its system Daudi (Burkitt's Lymphoma). The assay is described as above. Summed up:
as §1

Assay [6] concerns NCI-H1944 (Lung Adenocarcinoma). The assay is described as above. A digest of the protocol:
as §1

Assay [7] concerns SBC-3 (Small Cell Lung Carcinoma). Described as above. Summed up:
as §1

For assay [8], the system named is OVKATE (Ovarian Carcinoma). The description is as above. Summed up:
as §1

In assay [9] the test system is NCI-H1048 (Small Cell Lung Carcinoma). The assay is described as above. Summed up: as §1
Assay [10] concerns JURL-MK1 (Chronic Myelogenous Leukemia). The description is as above. Summed up: as §1
Assay [11] has as its system NCI-H1975 (Lung Adenocarcinoma). Described as above. Summed up: as §1
Assay [12] concerns NTERA-2-cl-D1 (Other Solid Carcinomas). Described as above. Summed up:
as §1

Assay [13] has as its system GCIY (Gastric Carcinoma). The assay is described as above. Summed up: as §1
The subject of assay [14] is GRANTA-519 (B-Cell Non-Hodgkin's Lymphoma). The assay is described as above. Summed up: as §1
The test system of assay [15] is MRK-nu-1 (Breast Carcinoma). Described as above. Summed up: as §1
For assay [16], the system named is RVH-421 (Melanoma). As to the kind of experiment: combination Emax (second highest fraction inhibited in the dose matrix, 72 h); higher = more inhibition; extreme values may be limits of the assay. A digest of the protocol:
as §1

The subject of assay [17] is NCI-H835 (Other Solid Carcinomas). Put plainly: Bliss excess, mean over the matrix (fraction); higher = more synergy. A digest of the protocol: as §1
For assay [18], the system named is RPMI-8402 (T-Lymphoblastic Leukemia). Described as above. A digest of the protocol: as §1

Take `Cc1c2c(nn1C)CSCc1cc(n(C)n1)CSc1cc(c3ccccc3c1)OCCCc1c(C(=O)O)n(C)c3c-2c(Cl)ccc13` [AZD5991] + Cc1cc2ncnn2cc1Nc1ncc2c(n1)n(C1CCOCC1)c(=O)n2C [AZD7648] (first compound max 1 µM, 7x7, partner max 10 µM): the Bliss excess is -0.0513 in assay [1]; -0.0307 in [2]; -0.0055 in assay [3]; -0.0432 in [4]; 0.0041 in [5]; -0.039 in assay [6]. Further, the Bliss excess in assay [7] is -0.0801; in [8] it was -0.0347; in [9] it was -0.0227; in assay [10], -0.0227; in assay [11] it was -0.104; in assay [12] it was -0.0697. Besides, the Bliss excess in assay [13] was -0.0242; in [14], -0.0268; in assay [15] it was -0.0058. Besides, in [16], the “combination Emax” value was 0.255.

With `CC(=O)c1c(C)c2cnc(Nc3ccc(N4CCNCC4)cn3)nc2n(C2CCCC2)c1=O` [Palbociclib] + Cc1c2c(nn1C)CSCc1cc(n(C)n1)CSc1cc(c3ccccc3c1)OCCCc1c(C(=O)O)n(C)c3c-2c(Cl)ccc13 [AZD5991] (first compound max 10 µM, 7x7, partner max 1 µM), the Bliss excess in assay [17] was -0.0004; in assay [1] it was -0.0498; in [2] it was -0.0691; in [3], -0.0308; in [5], 0.0059; in [6] it was 0.0187. Further, the Bliss excess in assay [7] was -0.043; in assay [8], -0.0382; in assay [9], -0.0904; in assay [10] it was -0.112; in assay [11], -0.0357; in assay [12], 0.019. For the same compound, the Bliss excess in [18] is 0.0046; in assay [13], -0.0198; in [14], 0.0039; in assay [15], -0.0869.

As to `CC(=O)c1c(C)c2cnc(Nc3ccc(N4CCNCC4)cn3)nc2n(C2CCCC2)c1=O` [Palbociclib] + Cn1cnc2c(F)c(Nc3ccc(Br)cc3Cl)c(C(=O)NOCCO)cc21 [Selumetinib] (first compound max 10 µM, 7x7, partner max 10 µM), the Bliss excess in assay [17] is -0.0551; in [1], 0.0209; in assay [2] it was 0.067; in [3], -0.0105; in assay [5], -0.0641; in assay [6], -0.0022. In addition, the Bliss excess in assay [7] is -0.0396; in [8], -0.0378; in [9], -0.0449; in assay [10] it was 0.0361; in [11], -0.0041; in [12], -0.007. Further, the Bliss excess is -0.0374 in assay [18], 0.0351 in assay [13], -0.0386 in [14] and 0.0259 in assay [15].

In the case of `Cn1cnc2c(F)c(Nc3ccc(Br)cc3Cl)c(C(=O)NOCCO)cc21` [Selumetinib] + C=CCn1c(=O)c2cnc(Nc3ccc(N4CCN(C)CC4)cc3)nc2n1-c1cccc(C(C)(C)O)n1 [AZD1775] (first compound max 10 µM, partner max 1 µM), the Bliss excess in assay [17] was -0.0223; in assay [1], -0.0253; in assay [2] it was -0.005; in assay [3], 0.0007; in assay [5], -0.0995; in [6] it was -0.0481. Besides, the Bliss excess was -0.0655 in assay [7]; -0.0524 in assay [8]; -0.0564 in assay [9]; 0.0067 in assay [10]; -0.0318 in assay [11]; 0.0314 in assay [12]. The Bliss excess in assay [18] is -0.0344; in [13], 0.0057; in assay [14], 0.03; in assay [15], -0.0289.

Take `Cn1cnc2c(F)c(Nc3ccc(Br)cc3Cl)c(C(=O)NOCCO)cc21` [Selumetinib] + CC(C)n1c(=O)n(C)c2cnc3cc(F)c(-c4ccc(OCCCN5CCCCC5)nc4)cc3c21 [AZD1390] (first compound max 10 µM, 7x7, partner max 0.3 µM): the Bliss excess in assay [17] was -0.0464; in assay [1] it was -0.0318; in [2], 0.025; in assay [3], -0.0087; in assay [5], -0.02; in assay [6] it was -0.0306. The Bliss excess was -0.0592 in assay [7]; -0.0178 in assay [8]; -0.0372 in assay [9]; -0.0296 in [10]; -0.0473 in assay [11]; 0.0052 in assay [12]. Moreover, the Bliss excess is -0.039 in [18], -0.0233 in assay [13], -0.0254 in [14] and 0.0225 in assay [15].

On to `Cn1cnc2c(F)c(Nc3ccc(Br)cc3Cl)c(C(=O)NOCCO)cc21` [Selumetinib] + CCN(CCO)CCCOc1ccc2c(Nc3cc(CC(=O)Nc4cccc(F)c4)[nH]n3)ncnc2c1 [AZD2811] (first compound max 10 µM, 7x7, partner max 1 µM), for which the Bliss excess was -0.0289 in [17]; -0.0981 in [1]; 0.0767 in assay [2]; -0.0112 in assay [3]; 0.0504 in assay [5]; 0.068 in assay [6]. Also, the Bliss excess in [7] is -0.0518; in [8] it was -0.0349; in assay [9], -0.0121; in [10], 0.0645; in assay [11], 0.0012; in assay [12], 0.0056. For the same compound, the Bliss excess in assay [18] is 0.0136; in assay [13] it was -0.0127; in assay [14] it was 0.0288; in assay [15] it was 0.045.

Consider `Cn1cnc2c(F)c(Nc3ccc(Br)cc3Cl)c(C(=O)NOCCO)cc21` [Selumetinib] + C[C@@H]1COCCN1C2=NC(=NC(=C2)C3(CC3)[S@](=N)(=O)C)C4=C5C=CNC5=NC=C4 [AZD6738] (first compound max 10 µM, 7x7, partner max 10 µM), for which the Bliss excess in assay [17] is -0.0375; in assay [1], -0.024; in assay [2] it was 0.0537; in assay [3] it was -0.0103; in [5] it was 0.0042; in assay [6], 0.01. Besides, the Bliss excess in [7] was -0.081; in [8], -0.0282; in assay [9], 0.0132; in [10], 0.0095; in assay [11] it was 0.0316; in [12], -0.009. In addition, the Bliss excess is -0.0196 in assay [18], -0.0003 in assay [13], 0.0067 in assay [14] and -0.0317 in [15].

These data come from the supplement of paper PMC11061612.
